Data on 6 molecules can be found in patent US20100285038A1, “Factor Involved in Metastasis and Uses Thereof” (priority 2002, published 2010).

The subject of one series is PRF1 protein. In words: Western blot analysis of PRF1 protein expression in PC-3 cells. Format: cell-based, human. Particulars: for expressed PRF1 protein: lysates of PC-3 cells treated with PRF1 specific GeneBlocs or mismatches, polyclonal antibody (FIG. 8A); for expression of PRF1 protein: PC-3 cells under hypoxic conditions, 72 h GeneBloc treatment, CoCl2 treatment for 24 h (FIG. 10B). How it is done: A polyclonal antibody was generated against PRF1 using standard techniques. The polyclonal antibody thus obtained was tested for its specificity for PRF1. For that purpose, cell lysates from PC-3 cells treated with PRF1 specific antisense molecules, more particularly gene blocks, or mismatches thereof and cells transfected with expression plasmides for recombinant HA-tagged PRF1 were prepared. The lysates were analysed by Western blot analysis using the polyclonal antibody and the results are depicted in FIG. 8 A.
To investigate whether PI 3-kinase activity has an impact on PRF1 protein expression, PC-3 cells were treated either with LY294002 or with DMSO as control. Analysis was performed by Western Blot analysis using the polyclonal antibody as detection means for PRF1 protein. Apart from PRF1 protein, also expression of Akt and phosphorylated Akt (P*Akt) was monitored using respective specific antibodies. Additionally, the expression of p110α and p85 was monitored.
(§1) To investigate whether the expression of PRF1 at the protein level would also be dependent on Akt (PKB) activity and HIF1α activity PC-3 cells were treated with Akt specific antisense molecules. More particularly, two antisense molecules, designated Akt1-GB and Akt2-molecule were used with the readout being the same as discussed in connection with FIG. 9, whereby, additionally, the HIF1α protein expression was monitored using a commercially available protein G-purified polyclonal antibody (R&DSystems, Lot Number: IUGO13071).
(§2) The same experiment using the same markers for monitoring except Akt and P*-Akt was carried out with cells grown under hypoxic conditions which was realized by treating the cells with CoCl2. Two different forms of antisense molecules, namely HIF1α-GB66 and HIF1α-GB67 were used and respective mismatches used as controls.
(§3) A lane of the Blot represents the cell lysate of the cells shown in the corresponding photograph. As a read-out, p110 alpha and p85 are shown as loading control and the component of the PI-3K pathway investigated, i.e. AKT, monitored as P*AKT, HIF1 alpha and PRF1.

Series [1] has as its system PRF1 (NM—019058) specific mRNA. Put plainly: PRF1 mRNA knock-down by real time RT-PCR (Taqman) in transfected PC-3 cells. Format: cell-based, human. Particulars: PC-3 cells seeded on matrigel; standardized to internal p110α mRNA levels; DCt method. How it is done:
Transfections were carried out in 96 well or 10-cm plates (at 30% to 50% confluency) by using various cationic lipids such as Oligofectamine, Lipofectamine (Life Technologies), NC388 (Ribozyme Pharmaceuticals, Inc., Boulder, Colo.), or FuGene 6 (Roche) according to the manufacturer's instructions. GeneBlocs were transfected by adding pre-formed 5× concentrated complex of GeneBloc and lipid in serum-free medium to cells in complete medium. The total transfection volume was 100 μl for cells plated in 96 wells and 10 ml for cells in 10 cm plates. The final lipid concentration was 0.8 to 1.2 μg/ml depending on cell density; the GeneBloc concentration is indicated in each experiment.
The RNA of cells transfected in 96-wells was isolated and purified using the Invisorb RNA HTS 96 kit (InVitek GmbH, Berlin). Inhibition of PRF1 mRNA expression was detected by real time RT-PCR (Taqman) analysis using 300 nM PRF1 5′ primer, 300 nM PRF1 3′ primer and 100 nM of the PRF1 Taqman probe Fam-Tamra labelled. […]
PC3 cells were transfected and seeded on matrigel as described and growth was monitored. mRNA was isolated from an aliquot of the cells seeded on matrigel and analysed using Taqman assay (left panel). […]
For orientation: In qPCR the cycle at which signal appears reflects the starting amount.

In series [2] the test system is PC-3 cells. Put plainly: In vitro growth on Matrigel matrix. Format: cell-based, human. The conditions noted are these: PC-3 cells transfected with GeneBloc; versus corresponding mismatched oligonucleotides. The protocol: PC3 cells were treated with 10 μM LY294002 or DMSO when seeded on Matrigel. If cells were transfected previous to seeding cells were transfected with GeneBloc and trypsinized 48 h post transfection. The cells were washed in medium and seeded into duplicate 24-wells (100.000 cells per well) pre-coated with 250 μl matrigel basement membrane matrix (Becton Dickinson). After incubation for 24 to 72 h photographs were taken at 5× magnification with an Axiocam camera attached to an Axiovert 5100 microscope (Zeiss).
A more confluent growth of the cells is taken as an indication that their metastasis and migration behavior is increased which allows the cells to spread over the three-dimensional structure provided by the matrigel. The result of this example is depicted in FIG. 5.
PC3 cells were transfected and seeded on matrigel as described and growth was monitored. mRNA was isolated from an aliquot of the cells seeded on matrigel and analysed using Taqman assay (left panel). PRF1 (NM_019058) specific mRNA was standardized to internal p110α mRNA levels. A PTEN specific GeneBloc is used as a negative control in the PTEN^−/− PC-3 cells and a p110β specific GeneBloc is used as a positive control for growth in extracellular matrix. […]

Another series relates to HIF1α. Put plainly: Western blot analysis of HIF1α protein expression in PC-3 cells. Format: cell-based, human. Particulars: PC-3 cells under hypoxic conditions; 72 h GeneBloc treatment, CoCl2 treatment for 24 h (FIG. 10B). How it is done: as §1, §2, §3
A general note: Immunoblotting shows a protein as a band on a membrane.

Series [3] has as its system PC-3 cells. In words: Prostatic tumor growth and lymph node metastasis of PC-3 cells stably transfected with siRNA expression plasmids. Format: in vivo, Shoe:NMRI-nu/nu mice. The conditions noted are these: 56 days post inoculation, stably transfected PC-3 cells. How it is done: Male Shoe:NMRI-nu/nu mice (Tierzucht Schönwalde GmbH) maintained under SPF conditions (Laminar air flow equipment, Scantainer, Scanbur) served as recipients for the human prostate carcinoma cells. The animals, aged 6-8 weeks and weighing 28-30 g, were inoculated 2×10^6/0.03 ml tumor cells into both, the left dorsolateral lobe of the prostatic gland (iprost; Orthotopic) or the tip of the Lobus lateralis sinister of the liver (ihep; Ectopic). For this purpose, the mice received a total body anaesthesia using a mixture of Ketanest (Parke-Davis GmbH) and Rompun (Bayer Vital GmbH) 80:1 with dosages of 100 mg/kg and 5 mg/kg, respectively. […]
All sacrificed animals were completely dissected and photographically documented. Tumors (Prostatic gland) and metastases (Caudal, lumbar, renal lymph node metastases) were measured in two dimensions by means of a pair of callipers. The volume was calculated according to V (mm^3)=ab^2/2 with b<a. […]
The various siRNA constructs such as the ones directed to p 110 alpha, p110 beta and PTEN as well as the PRF1 specific siRNA were cloned in the same vector construct. […] Resistent pools of cells were expanded and harvested, cell number determined and prepared for animal experiment as described. […]

d = 2'-deoxy (DNA); m = 2'-O-methyl

For “Akt2 GeneBloc: Akt specific antisense molecule (GeneBloc), SEQ ID NO: 38 (antisense UCCUUGTACCCAATGAAGGAG; sugars from the 5' end m6 d9 m6, backbone and methylation of C not given here; DNA gap phosphorothioate-linked, flank linkages not clearly stated, further chemistry not fully specified)”, the PRF1 protein level entry in the series on PRF1 protein (PC-3 cells, 72 h after treatment with Akt specific antisense molecules (FIG. 10A)) was “reduction”.

For “GeneBloc 70044: third generation antisense oligonucleotide directed to PRF1 mRNA, SEQ ID NO. 8 (antisense GCUCCUGCCTCTAGTCUCCAC; sugars from the 5' end m6 d9 m6, backbone and methylation of C not given here; DNA gap phosphorothioate-linked, flank linkages not clearly stated, further chemistry not fully specified)”, in series [1], the “knockdown of the mRNA of PRF1” value is “significant knockdown”. For the same molecule, the growth on matrigel entry in the series with PC-3 cells [2] was “Specific growth inhibition”. Besides, in the series with PRF1 protein, the “expressed PRF1 protein” value is listed as “significant decrease”.

Consider “GeneBloc 70168: mismatched oligonucleotide (4 mismatches) corresponding to 70043, alias FLJ: 954L21, SEQ ID NO. 12 (CCGAAAAGAACAGTGCUCUCU; sugars from the 5' end m6 d9 m6, backbone and methylation of C not given here; DNA gap phosphorothioate-linked, flank linkages not clearly stated, further chemistry not fully specified)”, for which the “expressed PRF1 protein” value in the series with PRF1 protein is listed as “significantly expressed”.

With “HIF1α-GB66: GeneBloc antisense molecule specific for HIF1α, SEQ ID NO: 32 (antisense GGUAGUGGTGGCATTAGCAGU; sugars from the 5' end m6 d9 m6, backbone and methylation of C not given here; DNA gap phosphorothioate-linked, flank linkages not clearly stated, further chemistry not fully specified)”, the “expression of PRF1 protein” value in the series with PRF1 protein is “reduced”. In addition, the “expression of HIF1α at the protein level” value with HIF1α is recorded as “significantly reduced”.

For the molecule “HIF1α-GB67: GeneBloc antisense molecule specific for HIF1α, SEQ ID NO: 34 (antisense UGACUCCTTTTCCTGCUCUGU; sugars from the 5' end m6 d9 m6, backbone and methylation of C not given here; DNA gap phosphorothioate-linked, flank linkages not clearly stated, further chemistry not fully specified)”, the “expression of PRF1 protein” value in the series with PRF1 protein was “reduced”. For the same molecule, the “expression of HIF1α at the protein level” value in the series with HIF1α is recorded as “significantly reduced”.

B1: PRF1 specific siRNA: siRNA generated by U6+2 promoter driven expression from plasmid, directed to the mRNA of PRF1; expression cassette SEQ ID NO. 17 (nucleic acid)
DNA: GAATTCCTATTTCCCATGATTCCTTCATATTTGCATATTTTTAAAATGGACTATCATATGCTTACCGTAACTTGAAAGTATTTCGATTTCTTGGCTTTATATATCTTGGGAAAGGACGAAACACCGGGAGACTAGAGGCAGGAGCAAAAAAAAAAACTCCTGCCTCTAGTCTCCACTTTTTCTCGAG
notes: siRNA generated by U6+2 promoter driven expression from plasmid, directed to the mRNA of PRF1; 17
Consider B1, for which, in the series on PC-3 cells [3] (EGFP expression plasmid as control (FIG. 6C)), the “prostatic tumor growth (volume of primary prostate tumors)” value was “significantly inhibited”. Besides, in the series with PC-3 cells [3] (EGFP expression plasmid as control (FIG. 6D)), the “total lymph node metastasis (volume)” value is reported as “less prominent”.
